Here are results for one compound from article PMC9785202, “Changes in Disposition of Ezetimibe and Its Active Metabolites Induced by Impaired Hepatic Function: The Influence of Enzyme and Transporter Activities” (Pharmaceutics, 2022).

For this data set, the target named is T1, OATP1B3 (Homo sapiens, UniProt Q9NPD5).
T1 sequence (Q9NPD5 1-702): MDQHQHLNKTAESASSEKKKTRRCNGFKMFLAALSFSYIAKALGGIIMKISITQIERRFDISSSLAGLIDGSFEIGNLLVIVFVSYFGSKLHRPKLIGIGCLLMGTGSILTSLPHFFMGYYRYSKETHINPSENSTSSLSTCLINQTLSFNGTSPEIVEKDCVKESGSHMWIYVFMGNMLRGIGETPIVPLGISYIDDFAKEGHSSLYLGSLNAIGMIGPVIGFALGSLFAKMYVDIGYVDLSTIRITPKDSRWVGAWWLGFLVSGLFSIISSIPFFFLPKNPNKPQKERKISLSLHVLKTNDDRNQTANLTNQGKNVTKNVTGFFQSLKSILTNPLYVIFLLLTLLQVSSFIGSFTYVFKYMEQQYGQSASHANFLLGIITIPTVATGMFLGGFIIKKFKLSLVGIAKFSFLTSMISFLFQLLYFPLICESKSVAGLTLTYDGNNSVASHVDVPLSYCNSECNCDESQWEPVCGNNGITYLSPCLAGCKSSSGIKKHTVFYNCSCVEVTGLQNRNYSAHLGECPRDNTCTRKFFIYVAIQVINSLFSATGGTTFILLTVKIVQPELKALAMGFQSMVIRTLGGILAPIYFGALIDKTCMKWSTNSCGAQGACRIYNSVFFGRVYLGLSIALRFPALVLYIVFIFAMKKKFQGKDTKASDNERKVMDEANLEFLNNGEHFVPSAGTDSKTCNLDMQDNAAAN
Briefly: Uptake of EZE-Ph into OATP1B3-transfected HEK293 cells. Format: in vitro ADME. Further details: host or cells: HEK293. The procedure:
The kinetic parameters and the half inhibitory concentration (IC50) were calculated using GraphPad Prism. […] The intrinsic clearance (CLint) was calculated as CLint = Vmax/Km.

[1] abbreviates: OATP1B3 HEK293, uptake time 5 min.

Structures are written as SMILES.

Turning to `O=C(O)[C@H]1O[C@@H](Oc2ccc([C@@H]3[C@@H](CC[C@H](O)c4ccc(F)cc4)C(=O)N3c3ccc(F)cc3)cc2)[C@H](O)[C@@H](O)[C@@H]1O` [EZE-Ph, ezetimibe phenoxy β-D-glucuronide], for the setting “10 μM EZE-Ph, OATP1B3 HEK293”, the “uptake in transporter-transfected cells relative to mock-transfected cells” value worked out at 56 times. In addition, the CLint (OATP1B3 HEK293, CLint = Vmax/Km) is listed as 6.73 μL/min/mg Protein. Further, under setting [1], the “Kinetic Model” value is recorded as “Substrate inhibition” and the Vmax is reported as 134 pmol/min/mg Protein. In addition, the Km at 5 min (human, OATP1B3-transfected HEK293 cells, OATP1B3 HEK293, uptake time 5 min) was determined as 19.9 µM.

A word on the Km: it is the concentration of substrate that gives half-maximal velocity.
